According to patent US20060258635A1, “Use of a porphyrin compound for the treatment of skin fungi” (PHOTOBIOCHEM N.V., priority 2003, published 2006):

How the values were obtained:
[1] = test system: Trichophyton rubrum; assay: Photodynamic treatment of Trichophyton rubrum suspension culture (white light illumination, growth on MEA quantified by counting inoculates); type: cell-based; conditions: for survival of the fungus after photodynamic treatment: after 7 days, over the whole concentration range used, control without photosensitizer is 100%; for result of photodynamic treatment of Trichophyton rubrum in suspension culture: 30 min incubation at 28° C., white light illumination, growth monitored during one week; for photodynamic efficacy above a concentration of 3 μg/ml: above 3 μg/ml; for photodynamic efficacy above a concentration of 3 μg/ml / photodynamic efficacy below a concentration of 3 μg/ml: FIG. 1A; for concentration at which a true fungicidal effect was detected: after photodynamic treatment, FIG. 1B; for photodynamic efficacy below a concentration of 3 μg/ml: below 3 μg/ml
Procedure: Materials The fungus Trichophyton rubrum was purchased from the Centraalbureau voor Schimmelcultures (CBS), Baarn, The Netherlands. Cultures were grown on Malt Extract Agar (MEA, Oxoid, Hampshire England). Suspension cultures were made in Dulbecco's Modified Eagle Medium (DMEM, GibcoBRL, UK) with 2.5 % Fetal Calf Serum (FCS, GibcoBRL, UK).
Solid cultures were maintained at 28° C., the suspension cultures at room temperature. Hematoporphyrin (HP) was purchased from Porphyrin Products Inc. (Utah, USA), 5,10,15-tris(4-methylpyridinium)-20-phenyl-[21H, 23H]-porphyrine trichloride (Sylsens B), deuteroporphyrin (DP) and deuteroporphyrin monomethylester (DP mme) were synthesized and kindly provided by the Department of Bio-Organic Photochemistry, Leiden University, the Netherlands (purity, checked with NMR was more than 99.5%). All the phthalocyanines were purchased from Porphyrin Products. Inc. (Utah, USA)) and Photofrin was purchased from Lederle Parenterals Inc. (Carolina, USA). Polyethylene-glycol was obtained from Genfarma B.V. (Maarssen, the Netherlands), while all other chemicals were purchased from J.T.Baker (Deventer, The Netherlands).
The following solvents were used: • 50 mM sodium phosphate buffer pH 7.4 for Sylsens B, HP, Photofrin, ZnPc and AlPcS4; • polyethyleneglycol:ethanol:water (3:2:5) for DP and DP mme; and • dimethylformamide (DMF) for PcS4.
Stock solutions of the photosensitizers of 2.5 mg/ml solvent were stored at […] for no longer than one week.
Photodynamic treatment Illuminations were performed with a lamp from “MASSIVE” (no.74900/21), 1× max. 500W-230 V-R7s, IP 44. To avoid heating of the samples to be illuminated, the white light produced by the lamp first passes a 2 cm thick water layer before reaching the samples. The light intensity was measured with a IL1400A photometer equipped with a SEL033/F/U detector (International Light, Newburyport, Mass., USA). Before illumination, the fungal culture suspensions were incubated with the photosensitizer in test tubes for 30 minutes at a temperature of 28° C. After incubation, the suspension cultures were illuminated in the presence of the sensitizer in 3 cm diameter culture dishes (Greiner, Alphen aan den Rijn, The Netherlands). After illumination, the contents of the culture dishes were transferred to dishes of 9 cm diameter containing MEA, placed in the incubator at 28° C. and growth was monitored during one week and quantified by counting the number of inoculates present.

[2] = test system: Trichophyton rubrum; type: cell-based

Row | Compound | survival of the fungus after photodynamic treatment [1] | result of photodynamic treatment of Trichophyton rubrum in suspension culture [1] | photodynamic efficacy above a concentration of 3 μg/ml [1] | concentration at which a true fungicidal effect was detected [1] | photodynamic efficacy below a concentration of 3 μg/ml [1] | effectiveness among the porphyrin derivatives ([1]; comparison of porphyrin derivatives) | dark toxicity [2] | concentration at which dark toxicity is displayed [2]
1 | [Zn+2].c1ccc2c(c1)-c1nc-2nc2[n-]c(nc3nc([n-]c4nc(n1)-c1ccccc1-4)-c1ccccc1-3)c1ccccc21 [ZnPc] | 100% | – | – | – | – | – | – | –
2 | C[n+]1ccc(-c2c3nc(c(-c4cc[n+](C)cc4)c4ccc([nH]4)c(-c4cc[n+](C)cc4)c4nc(c(-c5ccccc5)c5ccc2[nH]5)C=C4)C=C3)cc1.[Cl-].[Cl-].[Cl-] [Sylsens B, 5,10,15-tris(4-methylpyridinium)-20-phenyl-[21H, 23H]-porphyrine trichloride] | – | completely killing the fungus in almost all experiments | analogous to the effect caused by the other porphyrins | 3 µg/mL | better photodynamic efficacy | by far the most effective | no dark toxicity | –
3 | deuteroporphyrin monomethylester [DP mme] | – | completely killing the fungus in almost all experiments | analogous to the effect caused by the other porphyrins | 3 µg/mL | the same as detected with HP | – | expresses a dark toxicity at higher concentrations | –
4 | CC1=C(CCC(=O)O)c2cc3[nH]c(cc4nc(cc5[nH]c(cc1n2)c(C)c5C(C)O)C(C)=C4C(C)O)c(C)c3CCC(=O)O (stereo not drawn) [HP, Hematoporphyrin] | – | – | – | – | – | – | no dark toxicity | –
5 | CC1=C(CCC(=O)O)c2cc3nc(cc4[nH]c(cc4C)cc4[nH]c(cc1n2)cc4C)C(C)=C3CCC(=O)O [DP, deuteroporphyrin] | – | – | – | – | poorest efficacy | – | expresses a dark toxicity at higher concentrations | –
6 | Photofrin | 100% | merely a delay of growth in the first days | – | – | – | – | – | ≥ 90 µg/mL
